Assay [1] has as its system hMSCs. Kind of assay: Cartilage regeneration: chondrocyte differentiation of hMSCs on 14 kPa hydrogels (Sox9, Aggrecan). The format is cell-based, human. To be noted: 14 kPa hydrogels covalently modified with peptides, 96 hours. The method, then: Total RNA was extracted by using the RNeasy total RNA kit (Qiagen®) according to the manufacturer's instructions. Purified total RNA was used as a template in order to make cDNA by a reverse transcription reaction (Gibco Brl®) with random primers (Invitrogen®). The cDNA was then used as a template for a real-time PCR amplification in the presence of SYBR green reagents (Bio-Rad®) by using a thermocycler (iCycler, Biorad®). Data were analyzed with the iCycler IQ™® software and compared by the ΔΔCt method. […]
Total RNA was extracted by using the RNeasy Mini Kit (Qiagen) and […] RNA was used for cDNA synthesis with AMV kit (Invitrogen®) according to the manufacturer' instructions. Semi-quantitative reverse transcriptase-polymerase chain reaction (RT-PCR) was performed with Taq DNA Polymerase (Invitrogen®) in a thermocycler (Bio-Rad®). […] The PCR products were analyzed on 2% agarose gels. For the Aggrecan gene, the PCR bands were densitometrically quantified by using the BioCapt software (Vilber). […]
It was then verified that these hMSCs cultured on the covalently modified hydrogels were differentiated into chondrocyte cells by analyzing the expression of the chondrocyte gene biomarker: Aggrecan. […] For that a semi-quantitative RT-PCR was performed as described in the Methods section for the Aggrecan gene and a Quantitative Real Time PCR for Sox9.

Assay [2] relates to hMSCs. Nature of the assay: Loss of stemness: STRO-1 expression by immunostaining. It is filed as cell-based, human. To be noted: Table 8, SEQ ID NO: 1 to 49 tested in combination with a bioactive carrier (titanium, ceramics, collagen, etc.). The gist of the method:
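hMSCs cultured on plastic with GFR-binding peptides in solution (some sequences tested with a bioactive carrier), then fixed, permeabilized and immunostained for Stro-1. Stro-1-positive contact number and area quantified by thresholded image analysis, minimum 30 cells per condition.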

In assay [3] the test system is Human umbilical-vein endothelial cells. Nature of the assay: Endothelialization: adherent junctions (CD31) of endothelial cells on PET. It is filed as cell-based. The settings on record: PET covalently modified with peptide vs native PET, 36 hours. The method, then: (§1) The polymer used in this study is poly(ethylene terephthalate) (PET). The polymers were first treated in order to create —COOH (carboxyl) functions on the PET surfaces from —OH (hydroxyl) functions. Next, the PET-COOH samples were immersed in a solution of dimethylaminopropyl-3-ethylcarbodiimide hydrochloride (EDC, 0.2 M)+N-hydroxysuccinimide (NHS, 0.1 M) in 2-(N-morpholino)-ethanesulfonic acid (MES) buffer (0.1 M in MilliQ water) and the samples were rinsed in MilliQ water (50 mL for 30 min). The same protocol was used for all the polymers containing —OH (hydroxyl) functions on their extreme surface. Finally, the covalent immobilization of the peptides was achieved by using a solution of peptides/1×PBS (C=10^−3 M) incubated for 18 hours at room temperature. After grafting, the materials were rinsed in MilliQ water (100 ml) for 1 week.
An increase in the area of the adherent junctions (CD31) was observed after 36 hours of culture on the covalently modified PET (FIG. 13).

Assay [4] has the same test system. Nature of the assay: Angiogenesis: tube-like structure formation on PET. The format is cell-based. The settings on record: PET covalently modified with peptide, 18 hours. The method, then: as §1
For assay [5], the system named is Human Mesenchymal Stem Cells (hMSCs). Nature of the assay: Osteogenic differentiation of human mesenchymal stem cells (Runx2/Osterix immunostaining, ALP activity). The format is cell-based. To be noted: type-I collagen sponge coupled with peptide, 1 week of culture.
In assay [6] the test system is mouse mesenchymal pre-osteoblastic cells (MC3T3-E1). Kind of assay: Osteogenic differentiation of osteoblast progenitors (optical profilometry of extracellular matrix, Runx2 Q-PCR, Osteopontin immunostaining). The settings on record: apatite ceramics or type-I collagen sponge coupled with peptide vs native type-I collagen sponge, 48 hours. The format is cell-based. The method, then: The surface profiler system is a non-contact optical profiler that measures a wide range of surface heights. The vertical scanning interferometry mode allows for the measurement of rough surfaces and steps of up to several micrometers. This mode was used in order to measure the thickness of the extracellular matrix produced by the cells. First, after 24 h of culture, the cells were fixed with paraformaldehyde in PBS (4%) for 30 minutes at 4° C. and the samples were dehydrated in increasing concentrations of ethanol (30, 70, 80, 90, 95 and 100%) and critical-point dried. To evaluate the extent of the newly synthesized extracellular matrix, a spatula was used to scratch the surface of the materials. The samples were then metallized for 10 sec with gold or titanium before being analyzed.
The cells were first fixed for 20 min with 4% paraformaldehyde/PBS at 4° C. […]
Total RNA was extracted by using the RNeasy total RNA kit (Qiagen®) according to the manufacturer's instructions. […] Data were analyzed with the iCycler IQ™® software and compared by the ΔΔCt method. […]
The effect of the GFR-binding compounds as described herein (SEQ ID NO: 33) on the differentiation of osteoblast progenitors was evaluated. […]
An increase in the Runx2 gene expression after 24 hours of culture (FIG. 11) was observed by using Quantitative Real Time Polymerase Chain Reaction as described in the Methods section.

Assay [7] relates to Neurons (Neuronal Schwann Cells). Kind of assay: Neuron growth on titanium (dendrite growth, GAP43 Q-PCR). It is filed as cell-based. To be noted: titanium covalently modified with peptide.
From the text: […]

Where no end group is shown, it is not given here.

In the case of “37 (CASAAPSSVPQALEPLPIVYYVGRTPKVEQLSNMIVRSSK; not fully specified; ends and bridges not checked) [compound 37]”, the Sox9 protein expression entry in assay [1] is on record as “expression of the Sox9 protein was observed”. The “STRO-1 expression (%)” value in assay [2] is listed as 21%.
With “CVPTEERSVKVAKVRIKPHQGQHKEVQV (GFR-binding peptide) [SEQ ID NO: 38]”, the “area of the adherent junctions (CD31)” value in assay [3] is on record as “increase”.
For “CVPTEESNITMQIMRIKPHQGQHIGEMSFL (GFR-binding peptide) [SEQ ID NO: 39]”, in assay [4], the “formation of tube-like structures” value is on record as “formation of tube-like structures was observed”.
Consider “WWFWGKASSVPTELSPISTLYKDENEKVVLKYHYDMVVEGSGSR (WWFWGKASSVPTELSPISTLYKDENEKVVLKYHYDMVVEGXGXR; GFR-binding peptide; MOD_RES (41), (43): Xaa is C or S) [SEQ ID NO: 32]”, for which the “ALP (Alkaline Phosphatase) activity” value in assay [5] is on record as “increase”.
Turning to “WWFWGASSAVSQELSAISMLYLGGGLKNYQDMQHN (GFR-binding peptide) [SEQ ID NO: 33]”, the “production of extracellular matrix proteins such as Osteopontin (OPN)” value in assay [6] is “extensive amounts”.
Consider “CTVPKPSSAPTQLSPISILYIDAANNVVYKQYEDMVVRA (CTVPKPXXAPTQLSPISILYIDAANNVVYKQYEDMVVRA; GFR-binding peptide; MOD_RES (7), (8): Xaa is C or S) [SEQ ID NO: 49]”, for which, in assay [7] (6 hours), the “establishment of cell-cell contacts via dendrite growth” value is reported as “rapid establishment”. The “Growth Associated Protein 43 (GAP43) gene expression (Q-PCR)” value in assay [7] (48 hours) is reported as “high level of expression”.
Take “CKIPKASSVPTELEPLPIVYYVGRKPKVEQLSNMIVRS (CKIPKAXXVPTELEPLPIVYYVGRKPKVEQLSNMIVRS; GFR-binding peptide; MOD_RES (7), (8): Xaa is C or S) [SEQ ID NO: 36]”: in assay [1], the Sox9 protein expression entry is “expression of the Sox9 protein was observed”.

These data come from patent publication US20220267394A1, “COMPOUNDS FOR INDUCING TISSUE FORMATION AND USES THEREOF” (HISTIDE AG, priority 2015, published 2022).
